This note sets out measurements from patent US20250281467A1, “MODULATORS OF INTRACELLULAR CHLORIDE CONCENTRATION FOR USE IN THE TREATMENT OF COGNITIVE DECLINE” (FONDAZIONE ISTITUTO ITALIANO DI TECNOLOGIA, priority 2022, published 2025).

Structures are written as SMILES.

One data set addresses T1, KCC2 (Homo sapiens, UniProt Q9H2X9).
T1 sequence (Q9H2X9 1-1139): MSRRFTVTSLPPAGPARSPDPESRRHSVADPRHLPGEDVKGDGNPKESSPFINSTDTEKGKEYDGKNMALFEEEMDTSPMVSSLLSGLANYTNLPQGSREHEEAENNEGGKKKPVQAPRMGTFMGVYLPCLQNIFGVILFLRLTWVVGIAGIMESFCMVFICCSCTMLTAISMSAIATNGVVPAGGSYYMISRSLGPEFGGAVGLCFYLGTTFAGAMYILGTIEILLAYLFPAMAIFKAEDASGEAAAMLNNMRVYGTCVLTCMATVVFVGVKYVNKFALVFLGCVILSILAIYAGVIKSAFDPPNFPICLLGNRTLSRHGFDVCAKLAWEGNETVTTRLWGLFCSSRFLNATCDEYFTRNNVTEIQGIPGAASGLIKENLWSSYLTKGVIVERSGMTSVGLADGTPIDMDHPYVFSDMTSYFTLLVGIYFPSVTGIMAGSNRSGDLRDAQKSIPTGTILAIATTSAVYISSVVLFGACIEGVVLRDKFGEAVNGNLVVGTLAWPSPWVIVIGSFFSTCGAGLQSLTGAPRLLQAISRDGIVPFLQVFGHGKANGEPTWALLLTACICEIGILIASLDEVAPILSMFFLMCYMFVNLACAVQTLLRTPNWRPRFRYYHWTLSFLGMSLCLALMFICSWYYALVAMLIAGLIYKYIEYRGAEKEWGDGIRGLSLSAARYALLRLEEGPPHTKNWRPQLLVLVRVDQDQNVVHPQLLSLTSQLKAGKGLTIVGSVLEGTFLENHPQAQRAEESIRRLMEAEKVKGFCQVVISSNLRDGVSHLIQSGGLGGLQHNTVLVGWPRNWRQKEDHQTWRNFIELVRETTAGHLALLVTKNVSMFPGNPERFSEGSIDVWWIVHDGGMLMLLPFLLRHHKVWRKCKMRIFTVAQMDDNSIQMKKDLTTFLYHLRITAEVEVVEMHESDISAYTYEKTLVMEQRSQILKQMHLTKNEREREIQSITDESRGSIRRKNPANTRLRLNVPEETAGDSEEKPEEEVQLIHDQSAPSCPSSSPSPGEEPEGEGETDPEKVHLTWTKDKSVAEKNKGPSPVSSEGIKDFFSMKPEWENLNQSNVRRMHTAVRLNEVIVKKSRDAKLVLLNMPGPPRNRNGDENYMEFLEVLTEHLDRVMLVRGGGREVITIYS
The data set is described as follows: inhibitory activity measured in vitro on KCC2. The class given is biochemical. To be noted: IC50, in vitro on KCC2.
In the case of `CC(=O)N1CCCC1(CC1CCCCC1)C(=O)OCc1ccccc1` (stereo not shown) [Compound 24], half-maximal inhibition (IC50) required 4000 nM.

Staying with this data set, now noted: in vitro on KCC2; read-out: IC50.
Consider `CC(=O)N1CCCC1(Cc1ccccc1)C(=O)OCc1ccccc1` (stereo not shown) [Compound 21], for which the IC50 – broadly, the midpoint of a concentration-inhibition curve – amounted to 790 nM.

On to `CC(=O)N1CCCC1(CCc1ccccc1)C(=O)OCc1ccccc1` (stereo not shown) [Compound 22], for which the 50% inhibitory concentration (IC50) turned out to be 8000 nM.

Take `CCC1(C(=O)OCc2ccccc2)CCCN1C(C)=O` (stereo not shown) [Compound 23]: the IC50 is 2300 nM.

Take `CC(=O)N1CCCC1(Cc1ccncc1)C(=O)OCc1ccccc1` (stereo not shown) [Compound 25]: the half-maximal inhibitory concentration (IC50) amounted to 2000 nM.

As to `CC(=O)N1CCCC1(Cc1ccsc1)C(=O)OCc1ccccc1` (stereo not shown) [Compound 26], the IC50 came out at 790 nM.

For `CC(=O)N1CCCC1(Cc1ccc(C)cc1)C(=O)OCc1ccccc1` (stereo not shown) [Compound 27], the IC50 was determined as 790 nM.

As to `COc1ccc(CC2(C(=O)OCc3ccccc3)CCCN2C(C)=O)cc1` (stereo not shown) [Compound 28], the IC50 was 400 nM.

Regarding `CC(=O)N1CCCC1(Cc1ccc(C(F)(F)F)cc1)C(=O)OCc1ccccc1` (stereo not shown) [Compound 29], the IC50 came to 630 nM.

As for `CC(=O)N1CCCC1(Cc1ccc(F)cc1)C(=O)OCc1ccccc1` (stereo not shown) [Compound 30], the IC50 worked out at 200 nM.

In the case of `CC(=O)N1CCCC1(Cc1ccc(Cl)cc1)C(=O)OCc1ccccc1` (stereo not shown) [Compound 31], the IC50 worked out at 320 nM.

As for `CC(=O)N1CCCC1(Cc1ccc(S(C)(=O)=O)cc1)C(=O)OCc1ccccc1` (stereo not shown) [Compound 32], the IC50 was found to be 1000 nM.

In the case of `CC(=O)N1CCCC1(Cc1ccc(C#N)cc1)C(=O)OCc1ccccc1` (stereo not shown) [Compound 33], the 50% inhibitory concentration (IC50) came to 160 nM.

Regarding `CC(=O)N1CCCC1(Cc1cccc(C#N)c1)C(=O)OCc1ccccc1` (stereo not shown) [Compound 34], the IC50 is 320 nM.

On to `CC(=O)N1CCCC1(Cc1ccccc1C#N)C(=O)OCc1ccccc1` (stereo not shown) [Compound 35], for which the IC50 is 5000 nM.

Turning to `CC(=O)N1CCCC1(Cc1cccc(S(C)(=O)=O)c1)C(=O)OCc1ccccc1` (stereo not shown) [Compound 36], the IC50 came to 250 nM.

For the compound `CC(=O)N1CCCC1(Cc1cccc(C(F)(F)F)c1)C(=O)OCc1ccccc1` (stereo not shown) [Compound 37], the IC50 came out at 80 nM.

As for `CC(=O)N1CCCC1(Cc1ccc(F)c(C(F)(F)F)c1)C(=O)OCc1ccccc1` (stereo not shown) [Compound 38], the IC50 was found to be 60 nM.

For the compound `COc1ccc(CC2(C(=O)OCc3ccccc3)CCCN2C(C)=O)cc1C(F)(F)F` (stereo not shown) [Compound 39], the IC50 worked out at 50 nM.

Regarding `CC(=O)N1CCCC1(Cc1ccc(F)cc1C(F)(F)F)C(=O)OCc1ccccc1` (stereo not shown) [Compound 40], the IC50 was 4000 nM.

Take `CC(=O)N1CCCC1(Cc1ccccc1)C(=O)NCc1ccccc1` (stereo not shown) [Compound 41]: the half-maximal inhibitory concentration (IC50) was 100000 nM.

With `CC(=O)N1CCCC1(Cc1ccccc1)C(=O)N(C)Cc1ccccc1` (stereo not shown) [Compound 42], the IC50 was 32000 nM.

Consider `CC(=O)N1CCCC1(Cc1ccccc1)C(=O)O` (stereo not shown) [Compound 43], for which the IC50 was > 100000 nM.

Consider `COC(=O)C1(Cc2ccccc2)CCCN1C(C)=O` (stereo not shown) [Compound 44], for which the IC50 was > 100000 nM.

Turning to `CC(=O)N1CCCC1(Cc1ccccc1)C(=O)OC(C)c1ccccc1` (stereo not shown) [Compound 45], the IC50 is 4000 nM.

For the compound `CC(=O)N1CCCC1(Cc1ccccc1)C(=O)OCCc1ccccc1` (stereo not shown) [Compound 46], the IC50 stood at 10000 nM.

Take `CC(=O)N1CCCC1(Cc1ccccc1)C(=O)OCC1CCCCC1` (stereo not shown) [Compound 47]: the IC50 is 63000 nM.

Turning to `CC(=O)N1CCCC1(Cc1ccccc1)C(=O)OCc1ccncc1` (stereo not shown) [Compound 48], the IC50 is > 100000 nM.

As for `CC(=O)N1CCCC1(Cc1ccccc1)C(=O)OCc1ccccc1Cl` (stereo not shown) [Compound 49], the IC50 came to 6000 nM.

For `CC(=O)N1CCCC1(Cc1ccccc1)C(=O)OCc1cccc(Cl)c1` (stereo not shown) [Compound 50], the IC50 amounted to 2500 nM.

As to `CC(=O)N1CCCC1(Cc1ccccc1)C(=O)OCc1ccc(Cl)cc1` (stereo not shown) [Compound 51], the IC50 is 1300 nM.

Turning to `CC(=O)N1CCCC1(Cc1ccccc1)C(=O)OCc1ccc(C)cc1` (stereo not shown) [Compound 52], the IC50 is 790 nM.

Take `CC(=O)N1CCCC1(Cc1ccccc1)C(=O)OCc1ccc(C(F)(F)F)cc1` (stereo not shown) [Compound 53]: the IC50 is 5000 nM.

For `CC(=O)N1CCCC1(Cc1ccccc1)C(=O)OCc1ccc(S(C)(=O)=O)cc1` (stereo not shown) [Compound 54], the IC50 was > 100000 nM.

For the compound `O=C(OCc1ccccc1)C1(Cc2ccccc2)CCCN1` (stereo not shown) [Compound 55], the IC50 was > 100000 nM.

`CCN1CCCC1(Cc1ccccc1)C(=O)OCc1ccccc1` (stereo not shown) [Compound 56]: the IC50 was > 100000 nM.

Regarding `CS(=O)(=O)N1CCCC1(Cc1ccccc1)C(=O)OCc1ccccc1` (stereo not shown) [Compound 57], the IC50 was 1600 nM.

`COC(=O)N1CCCC1(Cc1ccccc1)C(=O)OCc1ccccc1` (stereo not shown) [Compound 58]: the IC50 is 400 nM.

As for `CCNC(=O)N1CCCC1(Cc1ccccc1)C(=O)OCc1ccccc1` (stereo not shown) [Compound 59], the IC50 came to 2000 nM.

With `CCC(=O)N1CCCC1(Cc1ccccc1)C(=O)OCc1ccccc1` (stereo not shown) [Compound 60], the half-inhibitory concentration (IC50) came out at 1200 nM.

For `O=C(C1CC1)N1CCCC1(Cc1ccccc1)C(=O)OCc1ccccc1` (stereo not shown) [Compound 61], the IC50 turned out to be 320 nM.

Take `O=C(c1ccccc1)N1CCCC1(Cc1ccccc1)C(=O)OCc1ccccc1` (stereo not shown) [Compound 62]: the IC50 is 4000 nM.

For `CC(=O)N1CCCC1(Cc1ccccc1)C(=O)CCc1ccccc1` (stereo not shown) [Compound 63], the IC50 was determined as 300 nM.

With `CC(=O)N1CCCC1(Cc1ccc(F)cc1)C(=O)CCc1ccc(F)cc1` (stereo not shown) [Compound 64], the IC50 came out at 200 nM.

For `CC(=O)N1c2ccccc2CC1(Cc1ccccc1)C(=O)OCc1ccccc1` (stereo not shown) [Compound 65], the IC50 was determined as 200 nM.

With `CC(=O)N1CCCC1(Cc1ccccc1)C(=O)OCc1ccccc1` (stereo not shown) [Compound 66], the IC50 is 20000 nM.

Take `CC(=O)N1CCCC1(Cc1ccccc1)C1=N[C@H](c2ccccc2)CO1` (stereo partly shown) [Compound 67]: the IC50 came to 1300 nM.

As for `CC(=O)N1CCCC1(Cc1ccccc1)c1nc(-c2ccccc2)co1` (stereo not shown) [Compound 68], the IC50 turned out to be 12600 nM.

As for `O=C1CCCC2CCC(Cc3ccccc3)(C(=O)OCc3ccccc3)N12` (stereo not shown) [Compound 69], the IC50 was determined as 1000 nM.

In another data set the test system is mice C57BL/6J aged >24 months. Nature of the data set: open field test after diazepam in elderly and young mice. The class given is in vivo. As to conditions: elderly mice (>24 months), diazepam 2 mg/kg, compared to elderly mice treated with vehicle or young mice treated with diazepam. The source says:
FIG. 2 illustrates the evaluation of the effect of benzodiazepines in elderly mice which is indicative of a potentiated GABAergic transmission. a) Quantification of the immobility time during the open field test of mice treated with vehicle (young, n=7, elderly, n=6) or diazepam (young, n=7, elderly, n=7) (two-way ANOVA, Tukey post hoc test, *** P<0.001). b) Quantification of the distance travelled during the open field test by mice treated with vehicle (young, n=7, elderly, n=6) or diazepam (young, n=7, elderly, n=7) (two-way ANOVA, Tukey post hoc test, ** P<0.01, *** P<0.001).
In fact, benzodiazepines are positive allosteric modulators of GABAAR. Benzodiazepines are commonly used as anxiolytic drugs, but can produce anxiogenic or highly sedative effects depending on the polarity of GABAergic transmission. To test the reaction of elderly mice to benzodiazepines, mice C57BL/6J aged >24 months and 2-month old controls C57BL/6J were treated with diazepam (2 mg/kg in saline solution) or vehicle (2% DMSO in saline solution). The open field test was then carried out to evaluate locomotor activity and the level of anxiety of the mice tested. […] This is indicative of an over-sedation reaction of the diazepam in the elderly mice, which may reflect the presence of hyper-inhibitory GABAergic transmission. This evidence is in accordance with the up-regulation of KCC2 (FIG. 1b).
Consider `CN1C(=O)CN=C(c2ccccc2)c2cc(Cl)ccc21` [diazepam], for which the “distance travelled during the open field test” value is recorded as “significantly lower” and the “immobility time during the open field test” value is listed as “significantly higher”.

The subject of another data set is elderly mice. Nature of the data set: novel object recognition (NOR) test in elderly mice. In kind it is in vivo. As to conditions: 1 mg/kg i.p., versus vehicle. An excerpt: FIG. 3 illustrates the evaluation of the efficacy of compound 32 (KCC2 inhibitor) to restore impaired memory in elderly mice. a) Quantification of the discrimination index of the NOR test in young (n=13) and elderly (n=10) mice (two tailed t-test, ** P<0.01). b) Quantification of the discrimination index of the NOR test in mice treated with vehicle (young, n=12, elderly, n=9) or compound 32 (young, n=10, elderly, n=6) (two-way ANOVA, Tukey post hoc test, ** P<0.01, ** P<0.001).
To evaluate memory capacity in the elderly mice, the novel object recognition (NOR) test was conducted. This test evaluates the long-term object recognition memory by measuring the capacity of the mice to recognize a novel object compared to familiar objects. […] Subsequently, to test the ability of the non-selective KCC2 inhibitor, Compound 32, to restore poor memory, the NOR test was conducted in the presence of the drug. The mice were treated with compound 32 (1 mg/kg i.p.) or with the vehicle.
For `CC(=O)N1CCCC1(Cc1ccc(S(C)(=O)=O)cc1)C(=O)OCc1ccccc1` (stereo not shown) [Compound 32], the “object recognition memory (discrimination index of the NOR test)” value is recorded as “significantly restored”.
